Source: the kinase profiling compilation of Christmann-Franck et al. (2016)

How the values were obtained:
Assay in all cases: radiometric filter-binding kinase assay, Kinase HotSpot
Conditions in all cases: compound 0.5 µM; ATP 10 µM
CDC42BPB (human) = CDC42BPB (human) (UniProt Q9Y5S2)
MYO3B (human) = MYO3B (human) (UniProt Q8WXR4)
SGK3 (human) = SGK3 (human) (UniProt Q96BR1)
STK10 (human) = STK10 (human) (UniProt O94804)
ADRBK2 (human) = ADRBK2 (human) (UniProt P35626)
ULK3 (human) = ULK3 (human) (UniProt Q6PHR2)
LRRK2 (human) = LRRK2 (human) (UniProt Q5S007)
TXK (human) = TXK (human) (UniProt P42681)
TNK2 (human) = TNK2 (human) (UniProt Q07912)
ERBB2 (human) = ERBB2 (human) (UniProt P04626)
ROCK2 (human) = ROCK2 (human) (UniProt O75116)
PAK1 (human) = PAK1 (human) (UniProt Q13153)
TSSK2 (human) = TSSK2 (human) (UniProt Q96PF2)
DYRK1A (human) = DYRK1A (human) (UniProt Q13627)
PRKCI (human) = PRKCI (human) (UniProt P41743)
NEK6 (human) = NEK6 (human) (UniProt Q9HC98)
EPHA6 (human) = EPHA6 (human) (UniProt Q9UF33)
ACVR1 (human) = ACVR1 (human) (UniProt Q04771)
ULK1 (human) = ULK1 (human) (UniProt O75385)
DAPK3 (human) = DAPK3 (human) (UniProt O43293)
EPHB3 (human) = EPHB3 (human) (UniProt P54753)
STK3 (human) = STK3 (human) (UniProt Q13188)
ITK (human) = ITK (human) (UniProt Q08881)
MAP2K1 (human) = MAP2K1 (human) (UniProt Q02750)
CHUK (human) = CHUK (human) (UniProt O15111)
IKBKB (human) = IKBKB (human) (UniProt O14920)
RET (human) = RET (human) (UniProt P07949)
STK38 (human) = STK38 (human) (UniProt Q15208)
FGR (human) = FGR (human) (UniProt P09769)
CDK1 CCNB1 (human) = CDK1 CCNB1 (human) (UniProt P06493+P14635)
TLK2 (human) = TLK2 (human) (UniProt Q86UE8)
DYRK2 (human) = DYRK2 (human) (UniProt Q92630)
CAMK1G (human) = CAMK1G (human) (UniProt Q96NX5)
ABL1 (human) = ABL1 (human) (UniProt P00519)
PIM2 (human) = PIM2 (human) (UniProt Q9P1W9)
PDPK1 (human) = PDPK1 (human) (UniProt O15530)
PRKACG (human) = PRKACG (human) (UniProt P22612)
NEK9 (human) = NEK9 (human) (UniProt Q8TD19)
BRAF (human) = BRAF (human) (UniProt P15056)
NTRK1 (human) = NTRK1 (human) (UniProt P04629)
ADRBK1 (human) = ADRBK1 (human) (UniProt P25098)

Chain of IKBKB (human) (O14920 whole entry, looked up): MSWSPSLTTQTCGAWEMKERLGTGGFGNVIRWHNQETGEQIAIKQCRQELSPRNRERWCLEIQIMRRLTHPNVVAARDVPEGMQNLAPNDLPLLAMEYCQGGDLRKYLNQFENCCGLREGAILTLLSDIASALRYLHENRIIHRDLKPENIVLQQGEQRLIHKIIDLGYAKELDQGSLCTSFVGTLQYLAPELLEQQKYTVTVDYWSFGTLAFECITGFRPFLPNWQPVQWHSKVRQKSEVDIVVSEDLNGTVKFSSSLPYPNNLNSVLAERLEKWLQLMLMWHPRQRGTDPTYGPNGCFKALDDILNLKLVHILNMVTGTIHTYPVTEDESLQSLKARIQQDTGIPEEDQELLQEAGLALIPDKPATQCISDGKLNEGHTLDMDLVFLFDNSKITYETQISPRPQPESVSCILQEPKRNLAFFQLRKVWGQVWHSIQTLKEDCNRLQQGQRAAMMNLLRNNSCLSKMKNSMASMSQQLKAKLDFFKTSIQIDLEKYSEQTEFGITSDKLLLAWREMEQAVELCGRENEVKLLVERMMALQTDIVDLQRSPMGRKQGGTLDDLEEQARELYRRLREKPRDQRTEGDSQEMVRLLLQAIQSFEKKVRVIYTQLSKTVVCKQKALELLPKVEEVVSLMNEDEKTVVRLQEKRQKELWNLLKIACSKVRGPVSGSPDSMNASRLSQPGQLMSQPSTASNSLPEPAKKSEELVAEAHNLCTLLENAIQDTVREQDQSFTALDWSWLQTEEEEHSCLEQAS
Chain of PAK1 (human) (Q13153 whole entry, looked up): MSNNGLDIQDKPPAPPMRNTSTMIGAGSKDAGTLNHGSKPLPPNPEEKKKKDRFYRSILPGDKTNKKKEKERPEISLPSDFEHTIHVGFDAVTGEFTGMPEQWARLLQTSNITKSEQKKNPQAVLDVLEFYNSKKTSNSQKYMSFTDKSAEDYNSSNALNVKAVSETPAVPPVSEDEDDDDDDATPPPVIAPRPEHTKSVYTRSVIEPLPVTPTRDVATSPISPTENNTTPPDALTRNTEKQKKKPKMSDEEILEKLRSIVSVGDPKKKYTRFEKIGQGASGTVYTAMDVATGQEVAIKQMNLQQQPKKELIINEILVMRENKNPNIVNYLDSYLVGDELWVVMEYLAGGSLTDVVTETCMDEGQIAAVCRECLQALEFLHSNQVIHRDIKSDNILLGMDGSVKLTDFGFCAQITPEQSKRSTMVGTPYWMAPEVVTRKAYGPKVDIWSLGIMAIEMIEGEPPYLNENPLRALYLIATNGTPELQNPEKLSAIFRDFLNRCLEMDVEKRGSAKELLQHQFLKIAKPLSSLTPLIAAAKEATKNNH
Chain of ULK3 (human) (Q6PHR2 whole entry, looked up): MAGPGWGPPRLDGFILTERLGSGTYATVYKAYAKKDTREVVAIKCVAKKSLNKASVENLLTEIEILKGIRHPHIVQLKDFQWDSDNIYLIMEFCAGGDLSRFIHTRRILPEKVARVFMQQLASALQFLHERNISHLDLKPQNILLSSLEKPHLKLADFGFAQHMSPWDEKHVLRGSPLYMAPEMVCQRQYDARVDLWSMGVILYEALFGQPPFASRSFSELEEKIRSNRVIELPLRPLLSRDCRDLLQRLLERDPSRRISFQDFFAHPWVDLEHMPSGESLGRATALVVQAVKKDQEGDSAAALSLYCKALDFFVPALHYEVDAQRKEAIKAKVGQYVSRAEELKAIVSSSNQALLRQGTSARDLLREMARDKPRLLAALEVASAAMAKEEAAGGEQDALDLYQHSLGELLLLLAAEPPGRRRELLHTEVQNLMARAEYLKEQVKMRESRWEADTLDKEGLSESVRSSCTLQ
Chain of FGR (human) (P09769 whole entry, looked up): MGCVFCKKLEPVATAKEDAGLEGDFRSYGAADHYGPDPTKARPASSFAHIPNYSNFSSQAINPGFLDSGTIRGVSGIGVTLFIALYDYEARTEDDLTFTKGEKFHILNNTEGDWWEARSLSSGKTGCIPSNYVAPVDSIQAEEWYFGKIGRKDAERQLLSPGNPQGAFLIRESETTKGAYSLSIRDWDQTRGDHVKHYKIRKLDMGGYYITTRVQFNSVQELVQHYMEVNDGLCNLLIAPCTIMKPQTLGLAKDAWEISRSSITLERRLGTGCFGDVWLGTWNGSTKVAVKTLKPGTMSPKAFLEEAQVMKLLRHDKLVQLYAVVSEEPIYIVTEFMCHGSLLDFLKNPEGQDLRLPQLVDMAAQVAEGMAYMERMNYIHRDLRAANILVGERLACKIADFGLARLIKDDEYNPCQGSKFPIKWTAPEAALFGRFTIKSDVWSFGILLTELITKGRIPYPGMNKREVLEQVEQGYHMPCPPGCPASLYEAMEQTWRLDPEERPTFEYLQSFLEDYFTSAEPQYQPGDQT
Chain of TLK2 (human) (Q86UE8 whole entry, looked up): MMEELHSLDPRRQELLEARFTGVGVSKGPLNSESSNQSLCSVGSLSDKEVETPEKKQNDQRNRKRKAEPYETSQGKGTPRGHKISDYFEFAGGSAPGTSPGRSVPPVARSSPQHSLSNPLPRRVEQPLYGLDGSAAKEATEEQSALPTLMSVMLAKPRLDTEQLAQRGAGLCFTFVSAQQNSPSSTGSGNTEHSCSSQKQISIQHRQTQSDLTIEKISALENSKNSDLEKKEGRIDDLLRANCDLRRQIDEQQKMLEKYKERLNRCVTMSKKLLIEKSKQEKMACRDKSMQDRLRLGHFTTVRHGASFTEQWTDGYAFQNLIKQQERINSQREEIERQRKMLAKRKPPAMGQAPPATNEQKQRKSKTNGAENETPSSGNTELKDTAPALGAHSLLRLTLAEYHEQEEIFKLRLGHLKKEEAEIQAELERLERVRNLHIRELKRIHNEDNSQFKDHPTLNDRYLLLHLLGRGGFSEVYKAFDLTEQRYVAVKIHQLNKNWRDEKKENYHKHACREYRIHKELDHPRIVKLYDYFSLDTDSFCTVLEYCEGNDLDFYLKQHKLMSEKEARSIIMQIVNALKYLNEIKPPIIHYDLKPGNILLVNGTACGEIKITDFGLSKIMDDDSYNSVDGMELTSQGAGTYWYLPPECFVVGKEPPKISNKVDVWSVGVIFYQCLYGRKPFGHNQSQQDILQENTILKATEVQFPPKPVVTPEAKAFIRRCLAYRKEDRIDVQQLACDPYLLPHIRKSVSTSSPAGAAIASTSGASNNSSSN
Chain of CDC42BPB (human) (Q9Y5S2 whole entry, looked up): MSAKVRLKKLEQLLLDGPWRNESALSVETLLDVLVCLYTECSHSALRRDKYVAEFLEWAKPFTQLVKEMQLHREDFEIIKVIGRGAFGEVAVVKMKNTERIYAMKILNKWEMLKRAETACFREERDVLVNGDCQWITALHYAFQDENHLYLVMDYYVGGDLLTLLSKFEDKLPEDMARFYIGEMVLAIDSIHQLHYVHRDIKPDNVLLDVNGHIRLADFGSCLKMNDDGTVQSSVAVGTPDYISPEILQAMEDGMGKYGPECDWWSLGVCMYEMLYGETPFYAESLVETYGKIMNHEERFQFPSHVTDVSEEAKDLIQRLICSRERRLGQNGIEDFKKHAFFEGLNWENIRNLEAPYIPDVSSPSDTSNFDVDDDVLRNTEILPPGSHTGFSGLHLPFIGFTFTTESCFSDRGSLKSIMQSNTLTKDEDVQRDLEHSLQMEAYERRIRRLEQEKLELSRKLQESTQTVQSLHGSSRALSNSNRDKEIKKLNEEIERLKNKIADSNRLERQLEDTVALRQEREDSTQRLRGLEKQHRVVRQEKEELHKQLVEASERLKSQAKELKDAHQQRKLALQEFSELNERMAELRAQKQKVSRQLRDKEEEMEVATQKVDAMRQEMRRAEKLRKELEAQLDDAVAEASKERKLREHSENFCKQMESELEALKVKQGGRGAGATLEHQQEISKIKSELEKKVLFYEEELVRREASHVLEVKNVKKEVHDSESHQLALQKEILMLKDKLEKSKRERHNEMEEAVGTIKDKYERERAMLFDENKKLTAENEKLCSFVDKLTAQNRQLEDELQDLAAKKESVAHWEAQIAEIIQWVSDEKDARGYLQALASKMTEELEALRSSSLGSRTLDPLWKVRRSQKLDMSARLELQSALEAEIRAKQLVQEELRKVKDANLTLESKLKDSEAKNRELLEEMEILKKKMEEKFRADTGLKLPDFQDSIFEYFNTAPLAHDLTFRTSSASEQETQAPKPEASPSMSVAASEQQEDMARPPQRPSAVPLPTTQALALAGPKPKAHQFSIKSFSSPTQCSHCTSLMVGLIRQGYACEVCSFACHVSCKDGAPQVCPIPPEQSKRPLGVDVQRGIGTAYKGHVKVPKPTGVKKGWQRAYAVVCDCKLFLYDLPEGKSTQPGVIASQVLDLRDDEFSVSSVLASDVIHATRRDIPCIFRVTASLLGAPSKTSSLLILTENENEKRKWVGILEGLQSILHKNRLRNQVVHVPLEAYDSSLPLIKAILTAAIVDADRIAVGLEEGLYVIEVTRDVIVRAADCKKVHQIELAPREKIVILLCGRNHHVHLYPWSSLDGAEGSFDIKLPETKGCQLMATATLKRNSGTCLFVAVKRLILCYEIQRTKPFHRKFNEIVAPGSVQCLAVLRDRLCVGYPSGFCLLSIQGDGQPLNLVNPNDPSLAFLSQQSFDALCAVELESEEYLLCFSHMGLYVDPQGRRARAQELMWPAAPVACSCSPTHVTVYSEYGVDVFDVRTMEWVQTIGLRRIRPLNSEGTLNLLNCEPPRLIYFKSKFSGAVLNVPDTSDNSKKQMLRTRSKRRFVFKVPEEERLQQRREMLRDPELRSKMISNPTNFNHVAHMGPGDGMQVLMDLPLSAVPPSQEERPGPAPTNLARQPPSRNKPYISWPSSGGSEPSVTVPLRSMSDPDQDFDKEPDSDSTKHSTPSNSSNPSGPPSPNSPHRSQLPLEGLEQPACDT

Compound: COc1cc2ncnc(N3CCN(C(=O)Nc4ccc(Oc5ccccc5)cc4)CC3)c2cc1OC
- residual activity (CDC42BPB (human)): 98.3%
- residual activity (MYO3B (human)): 95.4%
- residual activity (SGK3 (human)): 97.6%
- residual activity (STK10 (human)): 97.9%
- residual activity (ADRBK2 (human)): 106%
- residual activity (ULK3 (human)): 100%
- residual activity (LRRK2 (human)): 98.3%
- residual activity (TXK (human)): 99.3%
- residual activity (TNK2 (human)): 77.1%
- residual activity (ERBB2 (human)): 100%
- residual activity (ROCK2 (human)): 125%
- residual activity (PAK1 (human)): 91.8%
- residual activity (TSSK2 (human)): 79.1%
- residual activity (DYRK1A (human)): 97.9%
- residual activity (PRKCI (human)): 105%
- residual activity (NEK6 (human)): 103%
- residual activity (EPHA6 (human)): 89.6%
- residual activity (ACVR1 (human)): 100%
- residual activity (ULK1 (human)): 110%
- residual activity (DAPK3 (human)): 101%
- residual activity (EPHB3 (human)): 89.6%
- residual activity (STK3 (human)): 93.3%
- residual activity (ITK (human)): 88.1%
- residual activity (MAP2K1 (human)): 91.2%
- residual activity (CHUK (human)): 96%
- residual activity (IKBKB (human)): 102%
- residual activity (RET (human)): 104%
- residual activity (STK38 (human)): 96.9%
- residual activity (FGR (human)): 98.8%
- residual activity (CDK1 CCNB1 (human)): 105%
- residual activity (TLK2 (human)): 94.7%
- residual activity (DYRK2 (human)): 95.4%
- residual activity (CAMK1G (human)): 100%
- residual activity (ABL1 (human)): 97.4%
- residual activity (PIM2 (human)): 101%
- residual activity (PDPK1 (human)): 92.3%
- residual activity (PRKACG (human)): 103%
- residual activity (NEK9 (human)): 103%
- residual activity (BRAF (human)): 92.6%
- residual activity (NTRK1 (human)): 90.6%
- residual activity (ADRBK1 (human)): 96.7%

Compound: O=C1Cc2c([nH]c3ccc(Br)cc23)-c2ccccc2N1
- residual activity (CDC42BPB (human)): 95.9%
- residual activity (MYO3B (human)): 97.4%
- residual activity (SGK3 (human)): 107%
- residual activity (STK10 (human)): 89.8%
- residual activity (ADRBK2 (human)): 109%
- residual activity (ULK3 (human)): 83.2%
- residual activity (LRRK2 (human)): 78.7%
- residual activity (TXK (human)): 82.6%
- residual activity (TNK2 (human)): 38.8%
- residual activity (ERBB2 (human)): 103%
- residual activity (ROCK2 (human)): 84.6%
- residual activity (PAK1 (human)): 85%
- residual activity (TSSK2 (human)): 99.3%
- residual activity (DYRK1A (human)): 98.8%
- residual activity (PRKCI (human)): 89.1%
- residual activity (NEK6 (human)): 100%
- residual activity (EPHA6 (human)): 93.7%
- residual activity (ACVR1 (human)): 162%
- residual activity (ULK1 (human)): 93.8%
- residual activity (DAPK3 (human)): 111%
- residual activity (EPHB3 (human)): 92.3%
- residual activity (STK3 (human)): 83.2%
- residual activity (ITK (human)): 102%
- residual activity (MAP2K1 (human)): 84.3%
- residual activity (CHUK (human)): 98.6%
- residual activity (IKBKB (human)): 101%
- residual activity (RET (human)): 102%
- residual activity (STK38 (human)): 98.6%
- residual activity (FGR (human)): 74.4%
- residual activity (CDK1 CCNB1 (human)): 80.6%
- residual activity (TLK2 (human)): 99.4%
- residual activity (DYRK2 (human)): 107%
- residual activity (CAMK1G (human)): 97.4%
- residual activity (ABL1 (human)): 82.6%
- residual activity (PIM2 (human)): 104%
- residual activity (PDPK1 (human)): 94.9%
- residual activity (PRKACG (human)): 105%
- residual activity (NEK9 (human)): 94%
- residual activity (BRAF (human)): 97.7%
- residual activity (ADRBK1 (human)): 103%

Compound: Oc1ccc(Nc2nc(-c3ccc(Cl)cc3)cs2)cc1
- residual activity (CDC42BPB (human)): 108%
- residual activity (MYO3B (human)): 98.7%
- residual activity (SGK3 (human)): 98%
- residual activity (STK10 (human)): 96.6%
- residual activity (ADRBK2 (human)): 97.6%
- residual activity (ULK3 (human)): 94.4%
- residual activity (LRRK2 (human)): 98.7%
- residual activity (TXK (human)): 100%
- residual activity (TNK2 (human)): 103%
- residual activity (ERBB2 (human)): 96.9%
- residual activity (ROCK2 (human)): 99.4%
- residual activity (PAK1 (human)): 99.4%
- residual activity (TSSK2 (human)): 102%
- residual activity (DYRK1A (human)): 96.6%
- residual activity (PRKCI (human)): 99.5%
- residual activity (NEK6 (human)): 95.2%
- residual activity (EPHA6 (human)): 101%
- residual activity (ACVR1 (human)): 94.9%
- residual activity (ULK1 (human)): 84.2%
- residual activity (DAPK3 (human)): 103%
- residual activity (EPHB3 (human)): 103%
- residual activity (STK3 (human)): 114%
- residual activity (ITK (human)): 95.4%
- residual activity (MAP2K1 (human)): 90.7%
- residual activity (CHUK (human)): 104%
- residual activity (IKBKB (human)): 104%
- residual activity (RET (human)): 99%
- residual activity (STK38 (human)): 98.2%
- residual activity (FGR (human)): 96.4%
- residual activity (CDK1 CCNB1 (human)): 109%
- residual activity (TLK2 (human)): 121%
- residual activity (DYRK2 (human)): 91.2%
- residual activity (CAMK1G (human)): 106%
- residual activity (ABL1 (human)): 99.7%
- residual activity (PIM2 (human)): 106%
- residual activity (PDPK1 (human)): 101%
- residual activity (PRKACG (human)): 112%
- residual activity (NEK9 (human)): 90.6%
- residual activity (NTRK1 (human)): 104%
- residual activity (ADRBK1 (human)): 100%
